Measured values as given in ChEMBL document CHEMBL1159379, “Rhuschalcones II-VI, five new bichalcones from the root bark of Rhus pyroides” (2003).
Values after ≈ are worked out from the molar mass of the structure shown.

Experiments:
Format in all cases: functional
HCT-116 = assay: Cytotoxicity against human HCT116 cells; conditions: read-out: ED50 (the source's name)
SW-620 = assay: Cytotoxicity against human SW620 cells; conditions: read-out: ED50 (the source's name)
HT-29 = assay: Cytotoxicity against human HT-29 cells; conditions: read-out: ED50 (the source's name)
HCT-15 = assay: Cytotoxicity against human HCT15 cells; conditions: read-out: ED50 (the source's name)
KM12 = assay: Cytotoxicity against human KM12 cells; conditions: read-out: ED50 (the source's name)
COLO 205 = assay: Cytotoxicity against human COLO205 cells; conditions: read-out: ED50 (the source's name)
SK-MEL-5 = assay: Cytotoxicity against human SK-MEL-5 cells; conditions: read-out: LC50 (the source's name)
SK-MEL-28 = assay: Cytotoxicity against human SK-MEL-28 cells; conditions: read-out: LC50 (the source's name)
UACC-62 = assay: Cytotoxicity against human UACC62 cells; conditions: read-out: LC50 (the source's name)

| SMILES | EC50 (HCT-116) [mg/L] | EC50 (SW-620) [mg/L] | EC50 (HT-29) [mg/L] | EC50 (HCT-15) [mg/L] | EC50 (KM12) [mg/L] | EC50 (COLO 205) [mg/L] | CC50 (SK-MEL-5) [mg/L] | CC50 (SK-MEL-28) [mg/L] | CC50 (UACC-62) [mg/L] |
| --- | --- | --- | --- | --- | --- | --- | --- | --- | --- |
| COc1cc(O)c(C(=O)/C=C/c2ccc(O)cc2)cc1Oc1ccc(/C=C/C(=O)c2ccc(O)cc2O)cc1 [RHUSCHALCONE III] | 5 (≈ 9.53 µM) | 3 (≈ 5.72 µM) | 3 (≈ 5.72 µM) | 4 (≈ 7.63 µM) | 4 (≈ 7.63 µM) | 4 (≈ 7.63 µM) | – | – | – |
| O=C(/C=C/c1ccc(Oc2cc(C(=O)/C=C/c3ccc(O)cc3)c(O)cc2O)cc1)c1ccc(O)cc1O [RHUSCHALCONE II] | 15 (≈ 29.4 µM) | – | 14 (≈ 27.4 µM) | – | 19 (≈ 37.2 µM) | 15 (≈ 29.4 µM) | – | – | – |
| COc1cc(O)c(C(=O)/C=C/c2ccc(O)cc2)cc1Oc1ccc(C(=O)/C=C/c2ccc(O)cc2)c(O)c1 [RHUSCHALCONE IV] | – | – | – | – | – | 23 (≈ 43.8 µM) | 4.8 (≈ 9.15 µM) | 4.6 (≈ 8.77 µM) | 4.6 (≈ 8.77 µM) |
| COc1ccc(C(=O)/C=C/c2ccc(Oc3cc(C(=O)/C=C/c4ccc(O)cc4)c(O)cc3OC)cc2)c(O)c1 [RHUSCHALCONE I] | 5 (≈ 9.28 µM) | 42 (≈ 78 µM) | 3 (≈ 5.57 µM) | 51 (≈ 94.7 µM) | 17 (≈ 31.6 µM) | 11 (≈ 20.4 µM) | – | – | – |
| O=C(/C=C/c1ccc(O)c(-c2cc(C(=O)/C=C/c3ccc(O)cc3)c(O)cc2O)c1)c1ccc(O)cc1O [RHUSCHALCONE VI] | 5 (≈ 9.79 µM) | – | 10 (≈ 19.6 µM) | – | – | 24 (≈ 47 µM) | – | – | – |
